In one experiment the test system is Panc02. Put plainly: Antitumor activity against mouse Panc02 cells implanted in C57BL/6J mouse model assessed as tumor growth inhibition at 10 mg/kg, ip administered every other day for 24 days relative to control. The experiment is classed as functional. The conditions noted are these: Panc02, 576 h, time 24 day, read-out: TGI.
The subject of another experiment is PANC-1. Briefly: Antitumor activity against human PANC-1 xenografted in […] mouse model assessed as tumor growth inhibition at 10 mg/kg, ip administered every other day for 24 days relative to control. The note with it: PANC-1, 576 h, time 24 day, read-out: TGI. The experiment is classed as functional. (Xenograft models place foreign cells or tissue in a host animal.)

This passage reports inhibition in vivo results from ChEMBL document CHEMBL5512657, “Design, synthesis and evaluation of a pyrazolo[3,4-d]pyrimidine derivative as a novel and potent TGFβ1R1 inhibitor” (Eur J Med Chem, 2024).

As for `Nc1ccn([C@@H]2O[C@H](CO)[C@@H](O)C2(F)F)c(=O)n1` [GEMCITABINE], the inhibition in vivo at 10 mg/kg in the experiment with Panc02 amounted to 92.1%; with PANC-1, 82.2%.
